Results taken from patent publication US10344019B2 (priority 2010, dated 2019).
pEC50: −log10 of the molar value. Where two headings read alike, the source gives them in different places.

What was measured:
Type in all cases: cell-based
[1] = tested on: Q30R in genotype 1a NS5A, 1a Rluc replicon transfected into Huh-7 cured-51 cells; assay: HCV replicon assay, resistance mutant 1a Q30R; details: Hepatitis C virus, Huh-7, read-out: 1a Q30R
Method in brief: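 Q30R introduced into genotype 1a H77 RLuc replicon by site-directed mutagenesis; replicon RNA transfected into Huh-7 cured-51 cells.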

[2] = tested on: HCV 2a Rluc cells (NS5A chimeric genotype 2a JFH-1 replicon with genotype 2a J6 strain NS5A gene, M31 present); assay: HCV replicon reporter assay, genotype 2a J6 (M31 present); details: Hepatitis C virus, read-out: 2a J6
Method in brief: (§1)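 Renilla luciferase HCV replicon cells: dicistronic 1b Con1, 1a H77 or 2a JFH-1 replicons, or a JFH-1 chimera carrying J6 NS5A (M31 present). Compound in DMSO serial dilutions, 72 h incubation, then lysis and luciferase read. EC50 by non-linear regression.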

[3] = tested on: HCV 4a Rluc cells (NS5A chimeric genotype 1b Con1 replicon with genotype 4a NS5A gene); assay: microbe, parasite or virus in culture; details: Hepatitis C virus, read-out: 4a
Method in brief: (§2)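 Replicon cells stably carrying the listed RLuc-encoding dicistronic replicons were seeded and treated with DMSO serial dilutions of compound (10 mM stocks) diluted into culture medium. After 72 h, cells were lysed and Renilla luciferase activity measured. EC50 was derived by non-linear regression.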

[4] = tested on: HCV 3a RLuc cells (NS5A chimeric genotype 1b Con1 replicon with consensus genotype 3a NS5A gene); assay: microbe, parasite or virus in culture; details: Hepatitis C virus
Method in brief: as §2

[5] = tested on: HCV 2a JFH-1 Rluc cells (dicistronic genotype 2a JFH-1 replicon, RLuc reporter); assay: microbe, parasite or virus in culture; details: Hepatitis C virus, read-out: 2a JFH
Method in brief: as §1

[6] = tested on: HCV 1a RLuc cells (dicistronic genotype 1a H77 replicon, RLuc reporter); assay: microbe, parasite or virus in culture; details: Hepatitis C virus, read-out: 1a
Method in brief: as §1

[7] = tested on: HCV 2b Rluc cells (NS5A chimeric genotype 2a JFH-1 replicon with genotype 2b MD2b-1 NS5A gene, M31 present); assay: microbe, parasite or virus in culture; details: Hepatitis C virus, read-out: 2b
Method in brief: as §2

[8] = tested on: HCV 1b RLuc cells (dicistronic genotype 1b Con1 replicon, RLuc reporter); assay: microbe, parasite or virus in culture; details: Hepatitis C virus, read-out: 1b (nM)
Method in brief: as §1

[9] = read-out: 3a, genotype 3a NS5A chimeric replicon
[10] = genotype 2a JFH-1 RLuc replicon
[11] = read-out: 3a, genotype 3a replicon

Compound | pEC50 [1] | pEC50 [2] | pEC50 [3] | pEC50 [4, 9] | pEC50 [5, 10] | pEC50 ([6]; genotype 1a H77 RLuc replicon) | pEC50 [7] | EC50 [8] | pEC50 [4, 11] | pEC50 ([5]; genotype 2a JFH-1 replicon) | pEC50 ([6]; genotype 1a replicon) | pEC50 ([4]; read-out: 3a, Table 2, genotype 3a NS5A chimeric replicon) | pEC50 ([5]; 72 h, Table 2, genotype 2a JFH-1 replicon, 72 hours) | pEC50 ([6]; 72 h, Table 2, genotype 1a H77 replicon, 72 hours) | EC50 ([8]; 72 h)
COC[C@H]1C[C@@H](c2nc3ccc4cc5c(cc4c3[nH]2)OCc2cc(-c3cnc([C@@H]4C[C@H]6C[C@H]6N4C(=O)[C@@H](NC(=O)OC)C(C)C)[nH]3)ccc2-5)N(C(=O)[C@H](NC(=O)OC)c2ccccc2)C1 [Example 539] | 9.00 to 12.00 | 9.00 to 12.00 | 9.00 to 12.00 | 9.00 to 12.00 | 9.00 to 12.00 | 9.00 to 12.00 | 9.00 to 12.00 | 0.016 nM | – | – | – | – | – | – | –
COC(=O)N[C@H](C(=O)N1[C@@H](C)CC[C@H]1c1ncc(-c2ccc3c(c2)COc2cc4c(ccc5nc([C@@H]6CC[C@H](C)N6C(=O)[C@@H](NC(=O)OC)C(C)C)[nH]c54)cc2-3)[nH]1)C(C)C [Example 585] | 9.00 to 12.00 | 9.00 to 12.00 | 9.00 to 12.00 | 9.00 to 12.00 | 9.00 to 12.00 | 9.00 to 12.00 | 9.00 to 12.00 | 0.009 nM | – | – | – | – | – | – | –
COC[C@H]1C[C@@H](c2nc3ccc4cc(-c5ccc6c(ccc7nc([C@@H]8C[C@H]9C[C@H]9N8C(=O)[C@@H](NC(=O)OC)C(C)C)[nH]c76)c5)ccc4c3[nH]2)N(C(=O)[C@H](NC(=O)OC)c2ccccc2)C1 [Example 472] | 9.00 to 12.00 | 9.00 to 12.00 | 9.00 to 12.00 | – | – | – | 9.00 to 12.00 | 0.01 nM | 9.00 to 12.00 | 9.00 to 12.00 | 9.00 to 12.00 | – | – | – | –
COC(=O)N[C@H](C(=O)N1CCC[C@H]1c1nc2ccc3cc4c(cc3c2[nH]1)OCc1cc(-c2cnc([C@@H]3CCCN3C(=O)[C@H](NC(=O)OC)c3ccccc3)[nH]2)ccc1-4)C(C)C [Example 426] | 9.00 to 12.00 | 9.00 to 12.00 | 9.00 to 12.00 | – | – | – | 9.00 to 12.00 | 0.033 nM | 9.00 to 12.00 | 9.00 to 12.00 | 9.00 to 12.00 | – | – | – | –
COC[C@H]1C[C@@H](c2nc3ccc4cc5c(cc4c3[nH]2)OCc2cc(-c3cnc([C@@H]4CCCN4C(=O)[C@@H](NC(=O)OC)C(C)C)[nH]3)ccc2-5)N(C(=O)[C@@H](NC(=O)OC)C(C)C)C1 [Example 495] | 9.00 to 12.00 | 9.00 to 12.00 | 9.00 to 12.00 | 9.00 to 12.00 | 9.00 to 12.00 | 9.00 to 12.00 | 9.00 to 12.00 | 0.026 nM | – | – | – | – | – | – | –
CCC(=O)N[C@@H](C(=O)N1[C@@H]2CC[C@@H](C2)[C@H]1c1nc2ccc3cc(-c4ccc5c(ccc6nc([C@@H]7CCCN7C(=O)[C@@H](NC(=O)OC)C(C)C)[nH]c65)c4)ccc3c2[nH]1)c1ccccc1 [Example 418] | 7.36 to 9.00 | 9.00 to 12.00 | 9.00 to 12.00 | – | – | – | 9.00 to 12.00 | 0.035 nM | 9.00 to 12.00 | 9.00 to 12.00 | 9.00 to 12.00 | – | – | – | –
COC(=O)N[C@H](C(=O)N1CCC[C@H]1c1ncc(-c2ccc3c(c2)COc2cc4c(ccc5nc([C@@H]6CCCN6C(=O)[C@@H](NC(=O)OC)C(C)C)[nH]c54)cc2-3)[nH]1)C(C)C [Example 422] | 9.00 to 12.00 | 7.36 to 9.00 | 9.00 to 12.00 | – | – | – | 9.00 to 12.00 | 0.017 nM | 9.00 to 12.00 | 9.00 to 12.00 | 9.00 to 12.00 | – | – | – | –
COC(=O)N[C@H](C(=O)N1CCC[C@H]1c1nc2ccc3cc(-c4ccc5c(ccc6nc([C@@H]7[C@H]8CC[C@H](C8)N7C(=O)[C@@H](NC(=O)OC)C(C)C)[nH]c65)c4)ccc3c2[nH]1)C(C)C [Example 63] | 7.36 to 9.00 | 7.36 to 9.00 | 9.00 to 12.00 | – | – | – | < 7.36 | – | – | – | – | 9.00 to 12.00 | 9.00 to 12.00 | 9.00 to 12.00 | 0.019 nM
CCO[C@H]1C[C@@H](c2nc3ccc4cc5c(cc4c3[nH]2)OCc2cc(-c3cnc([C@@H]4CCCN4C(=O)[C@@H](NC(=O)OC)C(C)C)[nH]3)ccc2-5)N(C(=O)[C@@H](NC(=O)OC)C(C)C)C1 [Example 551] | 9.00 to 12.00 | 9.00 to 12.00 | 9.00 to 12.00 | 9.00 to 12.00 | 9.00 to 12.00 | 9.00 to 12.00 | 9.00 to 12.00 | 0.018 nM | – | – | – | – | – | – | –
